Literature values in US6623763B2, “Pharmaceutical preparation adhering to the skin, in particular a transdermal therapeutic system for the release of 17-β-estradiol to the human organism” (LTS Lohmann Therape-System AG, priority 1996, dated 2003).

Assays:
[1] = system: Alzheimer's and Parkinson's disease; settings: uniform supply of estradiol

SMILES | efficacy for prophylaxis of Alzheimer's and Parkinson's disease [1] | temperature of short-term heat treatment without decomposition
C[C@]12CC[C@@H]3c4ccc(O)cc4CC[C@H]3[C@@H]1CC[C@@H]2O [17-β-estradiol] | effective | –
C[C@]12CC[C@@H]3c4ccc(O)cc4CC[C@H]3[C@@H]1CC[C@@H]2O [17-β-estradiol semihydrate, 17-β-estradiol-semihydrate] | – | up to 170 °C
